“And” between values parts separate entries of the source, which are not always exact repeats. Equal entries are not always repeated.
What was measured:
Phakopsora pachyrhizi [1] = test: Flow cytometric assay of fungicide efficacy on Phakopsora pachyrhizi urediniospores (healthy vs dead spores, metabolic activity); Wadley and Colby evaluation; assay type: cell-based; conditions: for EC50 (Mean) / EC50: based on perturbation of the metabolic activity
Excerpt: in which E represents the expected effect, e.g. percentage of pest control, for the combination of the three active ingredient at defined doses (for example equal to x, y and z respectively), X is the effect, e.g. percentage of pest control, observed for compound (I) at a defined dose (equal to x), Y is the effect, e.g. percentage of pest control, observed for compound (II) at a defined dose (equal to y), Z is the effect, e.g. percentage of pest control, observed for compound (III) at a defined dose (equal to z). When the effect, e.g. percentage of pest control, observed for the combination is greater than the expected effect, there is a synergistic effect. The ratio of observed action (Eobs) and expected action (Eexp), i.e. Eobs/Eexp expresses the factor of interaction level (R) which may be interpreted in accordance with Table 1a below.
In the Wadley method, synergistic activity is determined from dose response curves. With this method, the efficacy of the active ingredient (“a.i.”) is determined by comparing the degree of fungal attack on treated plants with that on untreated, similarly inoculated and incubated check plants. Each a.i. is generally tested at multiple. (e.g., 6) concentrations, and dose response curves are generated. The dose response curves are used to establish the EC50 (i.e., the effective concentration of a.i. providing 50% disease control) of the individual compounds as well as of the combinations (EC50Observed). The experimentally found values of the mixture at a given weight ratio are compared with the values that would have been found were only a complementary efficacy of the components was present as follows:
ECtheo=(a+b)/[(a/ECA)+(b/ECB)]
ECtheo=(a+b+c)/[(a/ECA)+(b/ECB+(c/ECC)]
The ratio EC50 (A+B)Theo/EC50(A+B)observed expresses the factor of interaction level (R) which may be interpreted in accordance with Table 1b below.
Soybean rust, caused by Phakopsora pachyrhizi, is one of the most important foliar diseases of soybean worldwide. Seed of soybean were sown in pots in a loam-vermiculite soil mix and placed inside a growth chamber maintained at 18° C./26° C. night/day and 60 to 70% RH with 16 h of light for 3 weeks.
First leaves were harvested and placed in Petri dishes on 1% water agar. A spore suspension (1×10^5 spores/ml of water) were prepared from infected leaf samples and was sprayed on leaf pieces using an atomizer attached to an air compressor. Petri dishes containing leaf pieces were incubated inside a growth chamber maintained at 18° C./26° C. night/day and 60 to 70% RH with 16 h of light during 2-3 weeks. Urediniospores (1×10^5 spores/ml of water) were harvested from infected leaf samples and equal volumes of spore suspension and fungicide diluted in water were mixed in 96 well plate. Spores are stained by two fluorescent dyes, one which stained dead spores and a one for which intensity of staining is directly correlated to metabolic activity.
Flow cytometric analyses were performed on a CyFlow Cube 8 equipped with an autoloading station (Sysmex Partec GmbH, Gorlittz, Germany). The fluorescences were collected for 2000 to 3000 spores per well and were used to discriminate: (i) healthy spores and (ii) dead spores. The fungicide efficacies were then calculated from the percentage of healthy spores in control condition and in treated condition.
The EC50 is based the perturbation of the metabolic activity.

Phakopsora pachyrhizi [2] = test: Field fungicide tests for Asian soybean rust on soybean, Brazil; assay type: in vivo; conditions: soybean field plots, three foliar applications; fenpropidin 75-300 g a.i./ha; FIGS. 1 and 2
Procedure: The experiments for fungicide tests for Asian soybean rust (Phakopsora pachyrhizi) were carried out at Experimental Stations in different regions of Brazil. Each plot consisted of at least 15.0 m^2 (3.0 m×5.0 m). The experimental design was a randomized block design with four replicates, using soybean varieties adapted to each region. Three applications of foliar treatments were carried out at 10 to 15 day intervals, depending on the soybean rust pressure at each site. The applications were made with backpack sprayer pressurized with CO^2 set to apply 150 L. ha-1 of spray volume and 0.460 L/min per nozzle. […] The applications of the treatments were performed when the soybean was in stages 60 (First flowers opened (sporadically in population), 72 (About 20% of pods have reached final length (15-20 mm)) and 79 (Approx. pods have reached final length (15-20 mm), seeds filling the cavity of the majority of pods) of the BBCH international scale, respectively. The results were evaluated prior to the application of the treatments, and at 7, 14 and 21, 28 and 35 days after the first application through the visual evaluation of the percentage of disease severity per plot. The harvest was evaluated at a minimum of 5.0 m^2 per plot, and the data were transformed into kg·ha-1.

In the case of Mancozeb [Formulated Mancozeb], the Efficacy % (Phakopsora pachyrhizi [1]; Mancozeb dose 0.0128 ppm) is reported as 33.27%, the Efficacy % (Phakopsora pachyrhizi [1]; Mancozeb dose 0.064 ppm) is reported as 50.68% and the “EC50 (Mean)” value (Phakopsora pachyrhizi [1]; mean of Exp 1-3) is reported as <>0.042 ppm. The EC50 (Phakopsora pachyrhizi [1]; single experiments Exp 1-3) was <>0.037 ppm and <>0.058 ppm and <>0.032 ppm, the “% of efficiency, Mean” value (Phakopsora pachyrhizi [1]; dose 0.00256 ppm, mean of experiments) was 11.22% and the “% of efficiency, Mean” value (Phakopsora pachyrhizi [1]; dose 0.0128 ppm, mean of experiments) was 33.27%. The “% of efficiency” value (Phakopsora pachyrhizi [1]; dose 0.0128 ppm, single experiments) was 39.9% and 26.2% and 33.7%, the “% of efficiency, Mean” value (Phakopsora pachyrhizi [1]; dose 0.064 ppm, mean of experiments) was 50.88% and the “% of efficiency” value (Phakopsora pachyrhizi [1]; dose 0.064 ppm, single experiments) was 59.2% and 43.2% and 49.7%. The “% of efficiency, Mean” value (Phakopsora pachyrhizi [1]; dose 0.32 ppm, mean of experiments) was 88.10%, the “% of efficiency” value (Phakopsora pachyrhizi [1]; dose 0.32 ppm, single experiments) was 80.8% and 94.2% and 89.3% and the “% of efficiency, Mean” value (Phakopsora pachyrhizi [1]; dose 1.6 ppm, mean of experiments) was 95.20%. The “% of efficiency” value (Phakopsora pachyrhizi [1]; dose 1.6 ppm, single experiments) was 93.6% and 98.7% and 93.2%, the “% of efficiency, Mean” value (Phakopsora pachyrhizi [1]; dose 8 ppm, mean of experiments) was 94.99% and the “% of efficiency” value (Phakopsora pachyrhizi [1]; dose 8 ppm, single experiments) was 89.4% and 98.9% and 96.6%. For the same compound, the “% of efficiency, Mean” value (Phakopsora pachyrhizi [1]; dose 40 ppm, mean of experiments) was 96.58% and the “% of efficiency” value (Phakopsora pachyrhizi [1]; dose 40 ppm, single experiments) was 92.3% and 99.5% and 97.8%.
`Cn1cc(C(=O)Nc2ccccc2-c2cc(F)c(F)c(F)c2)c(C(F)F)n1` [Technical Fluxapyroxad, Fluxapyroxad] was tested, and the Efficacy % (Phakopsora pachyrhizi [1]; Fluxapyroxad dose 0.000576 ppm) was 15.24%, the Efficacy % (Phakopsora pachyrhizi [1]; Fluxapyroxad dose 0.00288 ppm) was 24.72% and the “EC50 (Mean)” value (Phakopsora pachyrhizi [1]; mean of Exp 1-3) was <>0.202 ppm. The EC50 (Phakopsora pachyrhizi [1]; single experiments Exp 1-3) was <>0.190 ppm and <>0.214 ppm and <>0.202 ppm, the “% of efficiency, Mean” value (Phakopsora pachyrhizi [1]; dose 0.0001152 ppm, mean of Exp 1-3) was 19.26% and the “% of efficiency, Mean” value (Phakopsora pachyrhizi [1]; dose 0.000576 ppm, mean of Exp 1-3) was 15.24%. For the same compound, the “% of efficiency, Mean” value (Phakopsora pachyrhizi [1]; dose 0.00288 ppm, mean of Exp 1-3) was 24.72%, the “% of efficiency” value (Phakopsora pachyrhizi [1]; dose 0.00288 ppm, single experiments Exp 1-3) was 18.6% and 37.0% and the “% of efficiency, Mean” value (Phakopsora pachyrhizi [1]; dose 0.0144 ppm, mean of Exp 1-3) was 18.40%. The “% of efficiency, Mean” value (Phakopsora pachyrhizi [1]; dose 0.072 ppm, mean of Exp 1-3) was 29.12%, the “% of efficiency” value (Phakopsora pachyrhizi [1]; dose 0.072 ppm, single experiments Exp 1-3) was 28.8% and 28.6% and 29.9% and the “% of efficiency, Mean” value (Phakopsora pachyrhizi [1]; dose 0.36 ppm, mean of Exp 1-3) was 59.74%. For the same compound, the “% of efficiency” value (Phakopsora pachyrhizi [1]; dose 0.36 ppm, single experiments Exp 1-3) was 61.7% and 52.3% and 65.2%, the “% of efficiency, Mean” value (Phakopsora pachyrhizi [1]; dose 1.8 ppm, mean of Exp 1-3) was 80.82% and the “% of efficiency” value (Phakopsora pachyrhizi [1]; dose 1.8 ppm, single experiments Exp 1-3) was 88.5% and 83.4% and 70.6%.
In the case of `CC(Cc1ccc(C(C)(C)C)cc1)CN1CCCCC1` (racemic) [Technical Fenpropidin, (±)-1-[3-[4-(1,1-dimethylethyl)phenyl]-2-methylpropyl]piperidine], the “effectiveness against Phakopsora pachyrhizi” value (Phakopsora pachyrhizi [2]) is reported as “effective”, the Efficacy % (Phakopsora pachyrhizi [1]; Fenpropidin dose 0.002304 ppm) is reported as 10.17% and the Efficacy % (Phakopsora pachyrhizi [1]; Fenpropidin dose 0.01152 ppm) is reported as 18.55%. The “EC50 (Mean)” value (Phakopsora pachyrhizi [1]; mean of Exp 1-3) was over 7.2 ppm, the EC50 (Phakopsora pachyrhizi [1]; single experiments Exp 1-3) was over 7.2 ppm and the “% of efficiency, Mean” value (Phakopsora pachyrhizi [1]; dose 0.0004608 ppm, mean of Exp 1-3) was 15.65%. The “% of efficiency, Mean” value (Phakopsora pachyrhizi [1]; dose 0.002304 ppm, mean of Exp 1-3) was 10.17%, the “% of efficiency, Mean” value (Phakopsora pachyrhizi [1]; dose 0.01152 ppm, mean of Exp 1-3) was 18.55% and the “% of efficiency, Mean” value (Phakopsora pachyrhizi [1]; dose 0.0576 ppm, mean of Exp 1-3) was 12.90%. The “% of efficiency” value (Phakopsora pachyrhizi [1]; dose 0.0576 ppm, single experiments Exp 1-3) was 10.9% and 12.4% and 15.5%, the “% of efficiency, Mean” value (Phakopsora pachyrhizi [1]; dose 0.288 ppm, mean of Exp 1-3) was 13.31% and the “% of efficiency” value (Phakopsora pachyrhizi [1]; dose 0.288 ppm, single experiments Exp 1-3) was 15.4% and 9.9% and 14.6%. For the same compound, the “% of efficiency, Mean” value (Phakopsora pachyrhizi [1]; dose 1.44 ppm, mean of Exp 1-3) was 16.42%, the “% of efficiency, Mean” value (Phakopsora pachyrhizi [1]; dose 7.2 ppm, mean of Exp 1-3) was 16.74% and the “EC50 (in 2018)” value (Phakopsora pachyrhizi [1]; value in brackets, 'in 2018') was “(88.916 ppm in 2018)”.
`OC(Cc1ccccc1Cl)(Cn1cncn1)C1(Cl)CC1` (stereo not shown) [Desthio-prothiconazole, Desthio-prothioconazole] was tested, and the Efficacy % (Phakopsora pachyrhizi [1]; Desthio-prothioconazole dose 0.004544 ppm) was 38.49% and the Efficacy % (Phakopsora pachyrhizi [1]; Desthio-prothioconazole dose 0.02272 ppm) was 49.44%.
